Results published in patent US20260265249A1, “PHARMACEUTICALLY ACCEPTABLE SALT AND CRYSTAL FORM OF 1,4-DIHYDRO-1,6-NAPHTHYRIDINE AMIDE COMPOUND AND PREPARATION METHOD THEREFOR” (JIANGSU HENGRUI PHARMACEUTICALS CO., LTD., priority 2023, published 2026).

Tests used:
Type in all cases: physicochemical
[1] = DVS (dynamic vapor sorption) hygroscopicity test
From the text: According to the description of hygroscopicity characteristics and the definitions of hygroscopic weight gains in “General Rule 9103, Guidelines for Hygroscopicity” in the Chinese Pharmacopoeia, Volume IV, 2015 Edition, • deliquescent: sufficient water is absorbed to form a liquid; • extremely hygroscopic: the hygroscopic weight gain is not less than 15%; • hygroscopic: the hygroscopic weight gain is less than 15% but not less than 2%; • slightly hygroscopic: the hygroscopic weight gain is less than 2% but not less than 0.2%; • nonhygroscopic or practically nonhygroscopic: the hygroscopic weight gain is less than 0.2%.
TGA refers to thermogravimetric analysis: The analysis was performed using a METTLER TOLEDO TGA 2 thermogravimetric analyzer, with a temperature ramp rate of 10° C./min, specific temperature ranges shown in corresponding patterns (mostly 30-350° C.), and a nitrogen purge speed of 50 mL/min. DVS refers to dynamic vapor sorption: The analysis was performed using SMS DVS Advantage; at 25° C., the humidity was changed as follows: 50%-95%-0%-95%-50%, in steps of 10% (5% for the last step) (specific humidity ranges are shown in corresponding patterns, and those listed here were used in most cases); the criterion was dm/dt being not greater than 0.002%.

[2] = Influencing factor stability study (open containers; light, high temperature, high humidity; 30 days)
[3] = Long-term/accelerated stability study (sealed in aluminum foil bags, 25° C./60% RH and 40° C./75% RH)
[4] = accelerated experimental conditions, 70% RH
[5] = normal storage conditions, 25° C. and 60% RH
[6] = open container, 40° C., 1 month
[7] = open container, 40° C., 14 days
[8] = open container, 60° C., 1 month
[9] = open container, 60° C., 14 days
[10] = open container, 75% RH, 1 month
[11] = open container, 75% RH, 14 days
[12] = open container, 92.5% RH, 1 month
[13] = open container, 92.5% RH, 7 days
[14] = open container, 92.5% RH, 14 days
[15] = open container, light exposure (4500 Lux), 1 month
[16] = open container, light exposure (4500 Lux), 7 days
[17] = open container, light exposure (4500 Lux), 14 days
[18] = 25° C.-60% RH, sealed aluminum foil bag, 1 month
[19] = 25° C.-60% RH, sealed aluminum foil bag, 2 months
[20] = 25° C.-60% RH, sealed aluminum foil bag, 3 months
[21] = 25° C.-60% RH, sealed aluminum foil bag, 6 months
[22] = 40° C.-75% RH, sealed aluminum foil bag, 1 month
[23] = 40° C.-75% RH, sealed aluminum foil bag, 2 months
[24] = 40° C.-75% RH, sealed aluminum foil bag, 3 months
[25] = 40° C.-75% RH, sealed aluminum foil bag, 6 months

## O=S(=O)(O)O.[2H]C([2H])([2H])Oc1cc(C#N)ccc1[C@@H]1C(C(N)=O)=C(C)Nc2c(C)cnc(OCC)c21 [crystal form a of sulfate]
[1]; [4]
  hygroscopic weight gain: about 1.9%
[1]
  crystal form re-identified after the DVS test: did not change
[1]; extreme conditions, 90% RH
  hygroscopic weight gain: about 3.1%
[1]; [5]
  hygroscopic weight gain: about 1.6%
[2]; 0 days
  Crystal form: Crystal form a of sulfate
  Purity: 99.7%
[2]; [6]
  Crystal form: No change
  Purity: 98.5%
[2]; open container, 40° C., 7 days
  Crystal form: No change
  Purity: 99.4%
[2]; [7]
  Crystal form: No change
  Purity: 98.8%
[2]; [8]
  Crystal form: No change
  Purity: 97.9%
[2]; open container, 60° C., 7 days
  Crystal form: No change
  Purity: 99.2%
[2]; [9]
  Crystal form: No change
  Purity: 98.7%
[2]; [10]
  Crystal form: No change
  Purity: 99.7%
[2]; open container, 75% RH, 7 days
  Crystal form: No change
  Purity: 99.7%
[2]; [11]
  Crystal form: No change
  Purity: 99.6%
[2]; [12]
  Crystal form: No change
  Purity: 99.7%
[2]; [13]
  Crystal form: No change
  Purity: 99.6%
[2]; [14]
  Crystal form: No change
  Purity: 99.7%
[2]; [15]
  Crystal form: No change
  Purity: 98.1%
[2]; [16]
  Crystal form: No change
  Purity: 99.2%
[2]; [17]
  Crystal form: No change
  Purity: 98.9%
[3]; 0 days (initial)
  Purity (%): 99.7%
[3]; [18]
  Crystal form: No change
  Purity (%): 99.7%
[3]; [19]
  Crystal form: No change
  Purity (%): 99.7%
[3]; [20]
  Crystal form: No change
  Purity (%): 99.8%
[3]; [21]
  Crystal form: No change
  Purity (%): 99.7%
[3]; [22]
  Crystal form: No change
  Purity (%): 99.6%
[3]; [23]
  Crystal form: No change
  Purity (%): 99.7%
[3]; [24]
  Crystal form: No change
  Purity (%): 99.6%
[3]; [25]
  Crystal form: No change
  Purity (%): 99.6%
[3]; storage under long-term accelerated conditions for 6 months
  long-term/accelerated stability (conclusion): good physical and chemical stability

## Br.[2H]C([2H])([2H])Oc1cc(C#N)ccc1[C@@H]1C(C(N)=O)=C(C)Nc2c(C)cnc(OCC)c21 [crystal form I of hydrobromide]
[1]; [4]
  hygroscopic weight gain: about 13.2%
[1]
  crystal form re-identified after the DVS test: did not change
[1]; extreme conditions, 90% RH
  hygroscopic weight gain: about 13.8%
[1]; [5]
  hygroscopic weight gain: about 12.8%
[2]; [8]
  Crystal form: No change
  Purity: 98.2%
[2]; open container, 60° C., 7 days
  Crystal form: No change
  Purity: 99.2%
[2]; [9]
  Crystal form: No change
  Purity: 99.0%
[2]; [10]
  Crystal form: No change
  Purity: 99.6%
[2]; open container, 75% RH, 7 days
  Crystal form: No change
  Purity: 99.7%
[2]; [11]
  Crystal form: No change
  Purity: 99.6%
[2]; [12]
  Crystal form: No change
[2]; [13]
  Crystal form: No change
  Purity: 99.7%
[2]; [14]
  Crystal form: No change
[2]; [16]
  Crystal form: No change
[2]; [17]
  Crystal form: No change
[3]; 0 days (initial)
  Purity (%): 99.7%
[3]; [18]
  Crystal form: No change
  Purity (%): 99.8%
[3]; [19]
  Crystal form: No change
  Purity (%): 99.7%
[3]; [20]
  Crystal form: No change
  Purity (%): 99.7%
[3]; [21]
  Crystal form: No change
  Purity (%): 99.7%
[3]; [22]
  Crystal form: No change
  Purity (%): 99.6%
[3]; [23]
  Crystal form: No change
  Purity (%): 99.4%
[3]; [24]
  Crystal form: No change
  Purity (%): 97.9%
[3]; [25]
  Crystal form: No change
  Purity (%): 97.9%
[3]; under long-term conditions
  long-term/accelerated stability (conclusion): stable
